Test [1] has as its system patient with nasal congestion. Description: Composition given to a patient with nasal congestion. It is filed as in vivo, human. The protocol:
One tablet is swallowed by a patient with nasal congestion.
One tablet is chewed and swallowed by a patient with nasal congestion.
One tablet is placed under the tongue of a patient with nasal congestion and allowed to dissolve.
One-tenth of a mL of the composition is sprayed from a pump actuator into each nostril of a patient with nasal congestion.
One-fifth of a mL of the composition is applied as drops from a dropper into each nostril of a patient with nasal congestion.
One 15 mL dose of the alcohol-free liquid medication is swallowed by a patient with nasal congestion.

A further test concerns patient with glaucoma. Description: Topical ophthalmic composition given to a patient with glaucoma, intraocular pressure. Format: in vivo, human. The following applies: Example G topical ophthalmic composition 0.10 % w/v, one-tenth of a mL into each eye. The protocol: One-tenth of a mL of the composition is administered directly into each eye of a patient with glaucoma.

Test [2] relates to human subject suffering from septic or cardiogenic shock. Description: Intravenous solution given to a human subject suffering from septic or cardiogenic shock. It is filed as in vivo. The following applies: Example T solution 10 mg/ml carrier, approximately 2.0 ml intravenously. The protocol:
The above ingredients are mixed, forming a solution. Approximately 2.0 ml of the solution is administered, intravenously, to a human subject suffering from septic or cardiogenic shock.

A further test relates to patient with migraine. Kind of test: Oral tablet given to a patient with migraine. It is filed as in vivo, human. The following applies: Example K oral tablet, 4 mg per tablet, one tablet swallowed. From the text:
One tablet is swallowed by a patient with migraine.

Test [3] has as its system patient with nasal congestion and runny nose due to allergic rhinitis. Description: Oral liquid given to a patient with nasal congestion and runny nose due to allergic rhinitis. Format: in vivo, human. Conditions: Example H oral liquid, 15 mg with chlorpheniramine maleate 4 mg per 15 mL dose, one dose swallowed. The protocol: One 15 mL dose of the liquid composition is swallowed by a patient with nasal congestion and runny nose due to allergic rhinitis.

A further test has as its system patient with asthma. Description: Inhalation aerosol given to a patient with asthma. Format: in vivo, human. Conditions: Example F inhalation aerosol 5.0 % w/v, two puffs from a metered-dose inhaler. From the text: Two-puffs of the aerosol composition is inhaled from a metered-dose inhaler by a patient with asthma.

Turning to `Cc1c(NNC(=N)N)ccc2cccnc12` [Example 1, [(8-Methylquinolin-7-yl)amino]guanidine], the nasal congestion result in test [1] (Example B chewable tablet, 15.0 mg per tablet, one tablet chewed and swallowed) is “substantially reduced”; in test [1] (Example D intranasal solution 0.20 % w/v, one-tenth of a mL sprayed into each nostril), “substantially diminished”; in test [1] (Example E intranasal gel 0.10 % w/v, one-fifth of a mL as drops into each nostril) it was “substantially reduced”. Further, the intraocular pressure entry with patient with glaucoma was “substantially reduced”. Also, in test [2], the “symptoms of septic or cardiogenic shock” value is listed as “symptoms subside”. For the same compound, in the test with patient with migraine, the “pain and aura of migraine” value is “substantially diminished”.

For “[(4-Methylbenzimidazol-5-yl)amino]guanidine [Example 2]”, the nasal congestion entry was “substantially diminished” in test [1] (Example A oral tablet, 20.0 mg per tablet, one tablet swallowed); “rapidly and substantially diminished” in test [1] (Example C sublingual tablet, 2.00 mg per tablet, one tablet under the tongue); “substantially diminished” in test [1] (Example J alcohol-free oral liquid, 30 mg per 15 mL dose, one dose swallowed). In test [3], the “congestion and runny nose” value is on record as “effectively reduced”. Besides, the asthmatic condition result in the test on patient with asthma was “effectively relieved”.

The values above are taken from US6436978B1, “Guanidinylamino heterocycle compounds useful as α-2 adrenoceptor agonists” (The Procter & Gamble Co., priority 1996, dated 2002).
